What was measured:
[1] = system: HCT 116 Xenograft Tumors; assay: HCT 116 cell line xenograft: DOXIL given 16 hr prior to Compound B-2 CoX (PO), 2 weekly cycles; tumor growth (studies of Tables 4-9); type: in vivo, nu/nu nude mice; conditions: Table 5 study; 100 mg/kg Compound B-2 CoX qd×4 alone
Method: (§1) Statistical significance was defined as P<0.05.
Effect of Compound B-2 CoX Schedule in Combination with DOXIL® in HCT 116 Xenograft Tumors: The HCT 116 xenograft tumor model was selected for further examination of the effect of schedule and dose of Compound B-2 CoX in combination with DOXIL®. In this study, the effect of dosing Compound B-2 CoX qd for 2, 3, and 4 days following DOXIL® was examined.
Dose Response of DOXIL® alone and Dose Response of Compound B-2 CoX in Combination with 6 mg/kg DOXIL® in HCT 116 Xenograft Tumors: Additional investigations were conducted to determine the dose response of DOXIL® alone (1.5-6 mg/kg) in the HCT 116 xenograft tumor model. Further, a dose response of Compound B-2 CoX (25-100 mg/kg) in combination with 6 mg/kg DOXIL® was also assessed. Lastly, the efficacy of 1.5 mg/kg DOXIL® in combination with 200 mg/kg Compound B-2 CoX was also examined.
Result of reexamination of Compound B-2 CoX Dose and Schedule in Combination with DOXIL® in an HCT 116 Xenograft Mouse Model.
Examination of the Effect of Compound B-2 CoX Dose in Combination with 3 mg/kg DOXIL® in an HCT 116 Xenograft Tumor Model: A 3 mg/kg DOXIL® dose was examined in combination with a range of doses of Compound B-2 CoX (50-200 mg/kg) to identify the response of HCT 116 xenograft tumors to these combinations. […]

[2] = system: OVCAR-3 Xenograft Tumors; assay: OVCAR-3 cell line xenograft: DOXIL given 16 hr prior to Compound B-2 CoX (PO); tumor growth; type: in vivo, nu/nu nude mice; conditions: 100 mg/kg Compound B-2 CoX qd×2 alone
Text: as §1

[3] = system: pKAP1 and pH2AX levels in DU4475 breast cancer cells; assay: pKAP1 and pH2AX immunoblot, Compound B-2 and doxorubicin in DU4475 breast cancer cells; type: cell-based, human; conditions: doxorubicin alone, 100 nM or 500 nM; from 4-8 h, elevated up to 24 h at 500 nM only
Method: (§2) Materials and Methods. The human cancer cell lines A549 (CCL-185), DU4475 (HTB-123), MDA-MB-436 (HTB-130), and MDA-MB-468 (HTB-132) were obtained from American Type Culture Collection (ATCC; Manassas, VA). A 10 mM stock solution of Compound B-1 or Compound B-2 was prepared in DMSO and stored at −20° C. Etoposide and doxorubicin were purchased from Sigma-Aldrich (St. Louis, MO).
(§3) The A549 human lung cancer cell line was purchased from ATCC and was cultured in DMEM supplemented with 10% fetal bovine serum, 1× non-essential amino acids and 1× Penicillin/Streptomycin (complete medium). Cells were maintained at a subconfluent state by passaging every 2-3 days. Human breast cancer cells lines DU4475, MDA-MB-436, and MDA-MB-468 were purchased from ATCC and cultured in DMEM supplemented with 10% fetal bovine serum, 1× Glutamax and Penicillin/Streptomycin. Cells were maintained at a subconfluent state by passaging every 2-3 days.
(§4) Compound B-1 and Compound B-2 used in these experiments were not prepared as a co-crystals.
(§5) Breast cancer cell lines grown in 24-well (Costar, catalog #3526) or 6-well (Costar, catalog #3516) tissue culture plates to 70-80% confluence were pre-incubated with 1 μM Compound B-2 or DMSO for 15 min. Doxorubicin was added to a final concentration of either 100 nM or 500 nM from a 1000× stock prepared in DMSO. Cells were then incubated for the indicated amount of time and harvested for analysis.
Cell Lysis and Western Blot Analysis. Cells treated with Compound B-1 or Compound B-2 in combination with chemotherapeutic agents were washed once with ice-cold PBS and then dissolved in 150 μL/well 2×SDS-PAGE sample buffer, transferred to microfuge tubes, and heated in a 105° C. heat block for 5 min for immunoblotting. A 15-μL aliquot of each SDS-PAGE sample was loaded onto 12-lane 4 20% Tris-Glycine gels and the gels were run at 125v constant voltage until the dye front reached the bottom (approximately 2 h). Following electrophoresis, separated proteins in the gels were transferred to a nitrocellulose membrane. Transfer was carried out for 2 h at 1.5 A constant current in a cold room using a Hoefer transfer apparatus (Model TE42 or TE62, Hoefer Inc, Holliston, MA) according to manufacturer's instructions. Following transfer, nitrocellulose membranes were incubated with blocking buffer for 1 h at room temperature. The nitrocellulose membranes were cut and the bottom halves were incubated overnight with 2 primary antibodies, anti-pH2AX (1/1000) and anti-total H2AX (1/1000). After washing, the appropriate fluorescently labeled secondary antibodies were added to the membranes and then imaged with pH2AX on the 800 (green) channel and total H2AX on the 700 (red) channel. The top halves of the membranes were probed sequentially for pKAP1 (1/1000) on the 700 (red) channel and then probed for total KAP1 (1/1000) and GAPDH (1/2500) on the 800 (green) channel. Image acquisition was conducted using an Odyssey fluorescent imaging system (Li-Cor Biosciences; Lincoln, NE).
Compound B-2 and doxorubicin combination in breast cancer cell lines in culture. To examine the effect of DNA-PK inhibition on pKAP1 and pH2AX in vitro, DU4475 breast cancer cells were pre-incubated with 1 μM Compound B-2 for 15 min, followed by addition of 100 nM or 500 nM doxorubicin. Cells were harvested at various time points following doxorubicin addition and analyzed for levels of pKAP1 and pH2AX by immunoblotting.

[4] = system: pKAP1 and pH2AX levels in MDA-MB-436 and MDA-MB-468 breast cancer cells; assay: pKAP1 and pH2AX immunoblot, Compound B-2 and doxorubicin in MDA-MB-436 and MDA-MB-468 cells; type: cell-based, human; conditions: 500 nM doxorubicin alone; at 4 h, remained elevated to 8 h
Method: as §2, §3, §4, §5
Cell Lysis and Western Blot Analysis. […]
To determine that enhancement of DNA damage by concurrent treatment of cells with Compound B-2 and doxorubicin was not specific to DU4475 cells, two additional breast cancer cell lines, MDA-MB-436 and MDA-MB-468, were also pre-incubated with 1 μM Compound B-2 for 15 min, followed by addition of 500 nM doxorubicin. Cells were harvested at various time points following doxorubicin addition and analyzed for levels of pKAP1 and pH2AX by immunoblotting.

SMILES | % T/C (Day 19) [1] [%] | % T/C (Day 43) [2] [%] | pKAP1 and pH2AX level [3] | pKAP1 and pH2AX level [4]
[2H]c1nc(C)nc([2H])c1-c1cc(NC[C@@H](C)c2cccc3c(C(=O)NC)ccnc23)ncn1 [Compound B-2 CoX] | 106 | 83.2 | – | –
COc1cccc2c1C(=O)c1c(O)c3c(c(O)c1C2=O)C[C@@](O)(C(=O)CO)C[C@@H]3O[C@H]1C[C@H](N)[C@H](O)[C@H](C)O1 [Doxorubicin, reference compound] | – | – | increased level | increased level

Source: US11980633B2, “Method for treating cancer using a combination of DNA-damaging agents and DNA-PK inhibitors” (Vertex Pharmaceuticals Incorporated, priority 2016, dated 2024)
